Data published in patent publication US7153979B2, “Triterpene derivatives and remedies for liver diseases” (Meiji Seika Kaisha, Ltd., priority 1996, dated 2006).

Tested on: hepatitis induced by concanavalin A in mice
Experiment: Concanavalin A (Con A) hepatitis model, plasma ALT
Assay type: in vivo, BALB/c male mice
Settings: 24 hr after Con A, control group 2068±518
Procedure: Effect in Concanavalin A (Con A) Hepatitis Model
Con A dissolved in physiological saline was intravenously administered at a dose of 20 mg/kg to BALB/c male mice (8 weeks in age) having a body weight of 21 to 25 g to induce hepatitis. A test compound (compound 7) was suspended in a mixed solution (control vehicle) composed of 25% dimethylsufoxide, 25% polyethylene glycol 400, and 0.25% carboxymethyl cellulose, and the suspension was subcutaneously administered 2 hr and 14 hr before the administration of Con A at three levels of dose, i.e., 0.2 mg/mouse, 1.0 mg/mouse, and 2.0 mg/mouse. A control vehicle alone was administered to a group of control mice. Twenty four hr after the administration of Con A, the mice were sacrificed under ether anesthesia to assay the alanine aminotransferase (ALT) activity, in plasma, as an index of hepatopathy.

In the case of `CC1(C)C[C@H]2C3=CC[C@@H]4[C@@]5(C)CC[C@H](O)[C@](C)(CO)[C@@H]5CC[C@@]4(C)[C@]3(C)CC[C@@]2(C)[C@H](O)[C@@H]1O` [Compound 7, Soyasapogenol A], the “alanine aminotransferase (ALT) activity in plasma” value (1.0 mg/mouse subcutaneously 2 hr and 14 hr before Con A 20 mg/kg i.v.) is reported as 55±16 u/l and the “alanine aminotransferase (ALT) activity in plasma” value (2.0 mg/mouse subcutaneously 2 hr and 14 hr before Con A 20 mg/kg i.v.) is reported as 55±16 u/l.
